From patent publication US5420339A, “Alpha-aryl or heteroaryl-substituted amide ester ACAT inhibitors” (Warner-Lambert Company, priority 1993, dated 1995)

What was measured:
[1] = in vivo adrenal toxicity screen in guinea pigs (Dominick et al.); parameters: species or system male guinea pigs of the Hartley strain; details: 100 mg/kg daily gavage, 2 weeks; for toxicity class to the adrenal gland: oleic acid vehicle
Method: Male guinea pigs of the Hartley strain (450-500 g) were obtained from Charles River and randomly divided into treatment groups. They were fed standard guinea pig chow ad libitum and dosed daily (AM) by gavage (100 mg/kg). The test compounds were dissolved or suspended in an oleic acid vehicle to facilitate absorption. After 2 weeks the animals were sacrificed by CO2 asphyxiation in the nonfasted state 16 hours after the last dose. Adrenal glands were weighed, fixed in 10% formalin, processed by routine paraffin techniques, sectioned, and then stained with hematoxylin and eosin for light microscopy. Toxicity was defined by the incidence, severity, and complexity of adrenal histopathologic alterations in the zona fasciculata (e.g., adrenal cortical atrophy, increased coarse vacuolation, single-cell necrosis, inflammatory cell infiltrates, mineralization/ectopic bone formation, and increased cytoplasmic eosinophilia).

[2] = APCC in vivo screen: blood cholesterol in rats on PCC diet with cholic acid; parameters: species or system male Sprague-Dawley rats; details: single dosing at 4 PM, PCC diet overnight with 1% or 0.5% cholic acid, sacrificed 8 AM
Method: The compounds were also evaluated in an in vivo screen designated APCC whereby male Sprague-Dawley rats (200 to 225 g) were randomly divided into treatment groups and dosed at 4 PM with either vehicle (CMC/Tween) or suspensions of compounds in vehicle. The normal chow diet was then replaced with the PCC diet with either 1% or 0.5% cholic acid. The rats consumed this diet ad libitum during the night and were sacrificed at 8 AM to obtain blood samples for cholesterol analysis using standard procedures. Statistical differences between mean cholesterol values for the same vehicle were determined using analysis of variance followed by Fisher-s least significant test.
The data appear in Table II where they are expressed as % change.

| SMILES | APCC % Change TC [2] | also measured |
| --- | --- | --- |
| CCCCCCCCCCCCC(C)OC(=O)CC(=O)Nc1c(C(C)C)cccc1C(C)C (racemic) [(±)3-[[2,6-bis(1-methylethyl)phenyl]amino]-3-oxo-propanoic acid, 1-methyltridecyl ester] | – | atrophy of the zona reticularis (incidence) [1]: two of six; cytotoxic zonal atrophy of the zona fasciculata (incidence) [1]: six of six; increased coarse vacuoles (incidence) [1]: two of six; inflammatory cell infiltrates (incidence) [1]: four of six; necrosis of the adrenal cortex (incidence) [1]: four of six; toxicity class to the adrenal gland [1]: highly toxic to the adrenal gland |
| CCCCCCCCCCCCC(C)OC(=O)C(C(=O)Nc1c(C(C)C)cccc1C(C)C)c1ccccc1 (racemic) [Example 1, (±)-Benzeneacetic acid, α-[[[2,6-bis(1-methylethyl)phenyl]amino]carbonyl]-, 1-methyltridecylester] | -61% | increased coarse vacuoles (incidence) [1]: one of six; toxicity class to the adrenal gland [1]: nontoxic to the adrenal gland |
| CCCCCCCCCCCCOC(=O)C(C(=O)Nc1c(C(C)C)cccc1C(C)C)c1ccccc1 (racemic) [Example 3, (±)-Benzeneacetic acid, α-[[[2,6-bis(1-methylethyl)phenyl]amino]carbonyl]-, dodecyl ester] | -63% | increased coarse vacuoles (incidence) [1]: five of six; toxicity class to the adrenal gland [1]: nontoxic to the adrenal gland |
| CCCCCCCCCCC(C)OC(=O)C(C(=O)Nc1c(C(C)C)cccc1C(C)C)c1ccccc1 (racemic) [Example 4, (±)-Benzeneacetic acid, α-[[[2,6-bis(1-methylethyl)phenyl]amino]carbonyl]-, 1-methylundecyl ester] | -37% | – |
| CCCCCCCCCCCCCCOC(=O)C(C(=O)Nc1c(C(C)C)cccc1C(C)C)c1ccccc1 (racemic) [Example 5, (±)-Benzeneacetic acid, α-[[[2,6-bis(1-methylethyl)phenyl]amino]carbonyl]-, tetradecyl ester] | -49% | – |
| CCCCCCCCCCOC(=O)C(C(=O)Nc1c(C(C)C)cccc1C(C)C)c1ccccc1 (racemic) [Example 6, (±)-Benzeneacetic acid, α-[[[2,6-bis(1-methylethyl)phenyl]amino]carbonyl]-, decyl ester] | -58% | – |
| CCCCCC(C)OC(=O)C(C(=O)Nc1c(C(C)C)cccc1C(C)C)c1ccccc1 (racemic) [Example 7, (±)-Benzeneacetic acid, α-[[[2,6-bis(1-methylethyl)phenyl]amino]carbonyl]-, 1-methylhexyl ester] | -67% | – |
| CCCCCCCOC(=O)C(C(=O)Nc1c(C(C)C)cccc1C(C)C)c1ccccc1 (racemic) [Example 8, (±)-Benzeneacetic acid, α-[[[2,6-bis(1-methylethyl)phenyl]amino]carbonyl]-, heptyl ester] | -71% | – |
| CCCOC(=O)C(C(=O)Nc1c(C(C)C)cccc1C(C)C)c1ccccc1 (racemic) [Example 9, (±)-Benzeneacetic acid, α-[[[2,6-bis(1-methylethyl)phenyl]amino]carbonyl]-, propyl ester] | -20% | – |
| CCCCCCCCOC(=O)C(C(=O)Nc1c(C(C)C)cccc1C(C)C)c1ccccc1 (racemic) [Example 10, (±)-Benzeneacetic acid, α-[[[2,6-bis(1-methylethyl)phenyl]amino]carbonyl]-, octyl ester] | -56% | – |
| CCCCCCCCCOC(=O)C(C(=O)Nc1c(C(C)C)cccc1C(C)C)c1ccccc1 (racemic) [Example 11, (±)-Benzeneacetic acid, α-[[[2,6-bis(1-methylethyl)phenyl]amino]carbonyl]-, nonyl ester] | -67% | – |
| CCCCCCCCCCCCC(C)(C)OC(=O)C(C(=O)Nc1c(C(C)C)cccc1C(C)C)c1ccccc1 (racemic) [Example 12, (±)-Benzeneacetic acid, α-[[[2,6-bis(1-methylethyl)phenyl]amino]carbonyl]-, 1,1-dimethyltridecyl ester] | -26% | – |
| CCCCCCCCCCCCCCCCOC(=O)C(C(=O)Nc1c(C(C)C)cccc1C(C)C)c1ccccc1 (racemic) [Example 13, (±)-Benzeneacetic acid, α-[[[2,6-bis(1-methylethyl)phenyl]amino]carbonyl]-, hexadecyl ester] | -26% | – |
| CCCCCCCCCCCCCCCCCCOC(=O)C(C(=O)Nc1c(C(C)C)cccc1C(C)C)c1ccccc1 (racemic) [Example 14, (±)-Benzeneacetic acid, α-[[[2,6-bis(1-methylethyl)phenyl]amino]carbonyl]-, octadecyl ester] | -25% | – |
| CCCCC(C)(C)OC(=O)C(C(=O)Nc1c(C(C)C)cccc1C(C)C)c1ccccc1 (racemic) [Example 15, (±)-Benzeneacetic acid, α-[[[2,6-bis(1-methylethyl)phenyl]amino]carbonyl]-, 1,1-dimethylpentyl ester] | -72% | – |
| CCCCCCCCCCCCCCC(C)OC(=O)C(C(=O)Nc1c(C(C)C)cccc1C(C)C)c1ccccc1 (racemic) [Example 16, (±)-Benzeneacetic acid, α-[[[2,6-bis(1-methylethyl)phenyl]amino]carbonyl]-, 1-methylpentadecyl ester] | -37% | – |
| CCCCCCCCCCCCC(C)OC(=O)C(C(=O)Nc1c(OC)cc(OC)cc1OC)c1ccccc1 (racemic) [Example 17, (±)-Benzeneacetic acid, α-[[(2,4,6-trimethoxyphenyl)amino]carbonyl]-, 1-methyltridecyl ester] | -59% | – |
| CCCCCCCCCCCCOC(=O)C(C(=O)Nc1c(OC)cc(OC)cc1OC)c1ccccc1 (racemic) [Example 18, (±) -Benzeneacetic acid, α-[[(2,4,6-trimethoxyphenyl)amino]carbonyl]-, dodecyl ester] | -51% | – |
| CCCCCCCCCCCCOC(=O)C(C(=O)Nc1c(C(C)C)cccc1C(C)C)c1ccccn1 (racemic) [Example 19, (±)-2-pyridineacetic acid, α-[[[2,6-bis(1-methylethyl)phenyl]amino]carbonyl]-, dodecyl ester] | -43% | – |
